What was measured:
[1] = system: CDC activity; details: degalactosylated antibody; cited from earlier work
[2] = system: mAb1 cells (cell line 1); test: Fed-batch culture of mAb1 cells, supplementation as feed after the start of the culture: cell density, viability, titer; assay type: cell-based, Chinese hamster
Method: (§1) For example 4: Additional experiments were run in similar conditions, except with regard to supplementation with α- or β-2-F-peracetyl galactose. In such a case, a serum-free chemically defined culture medium was used, supplemented with α- or β-2-F-peracetyl galactose as mentioned thereafter in Table 2.
(§2) The cultures were performed in deepwell plates (DWP) with a working volume of 450 μL. They were incubated at 36.5° C., 5% de CO2, 90% humidity and shaken at 320 rpm. Each of the fed-batch culture lasted 14 days. It is well known that experiments in DWP are artificial, although they allow a first screening of culture conditions. In order to confirm that the results obtained in DWP were reproducible at higher scale, similar experiments were also run in TubeSpin® (also called herein shake tubes or ST), with a working volume of 30 mL cell culture (same culture condition than for deepwell plates).
(§3) For TubeSpin® experiments, viable cell density and viability were measured with the ViCell®. Antibody titers were measured using Biacore®.
Rather than supplementing the medium prior to inoculation, it was decided to start the galactose analog addition on day 3, 5 or 7 (respectively β-2F-pGal-d3, β-2F-pGal-d5 and β-2F-pGal-d7; see Table 2). Cell line 1 was used for these experiments. […] The peak cell densities were reached on day 7. No significant difference between the control and the β-2F-pGal-d3 supplemented cultures was observed. They both levelled off at 20.8 and 21.2×10^6 viable cells/mL, respectively. […] Overall, it can be assumed that the presence of β-2F-p-galactose induced limited changes on cell growth until day 7. In the second half of the culture, both the cell density and the viability (FIG. 11B) are correlated with the feed timing. Supplementation on day 3 most strongly impacted the course of the culture. At harvest, the cell density amounted to 9.8×10^6 viable cells/mL (control: 11.8×10^6 viable cells/mL). […] Feed addition on day 5 and 7, respectively, entailed viabilities on day 14 of 78 and 90% (control: 93%). According to FIG. 11C, no clear titer trend came forward. Early supplementation induced a slight titer increase on days 7 and 10, but then reduced productivity at later stages of the culture.

[3] = system: galactosylation of mAb1 antibody (mAb1 cells); test: Glycosylation profile of mAb1 produced in TubeSpin (CGE-LIF); assay type: cell-based, Chinese hamster
Method: (§4) First assays were performed with an antibody produced in a CHO cell line: CHO-S cells expressing IgG1 mAb1, herein “Cells mAb1” or “mAb1 cells”. “mAb1” is a fully human monoclonal antibody directed against a soluble protein. Its isoelectric point (pI) is about 8.20-8.30.
(§5) For examples 1-3: A serum-free chemically defined culture medium was used. It was used as it is, or it was supplemented with α- or β-2-F-peracetyl galactose (herein α- or β-2F-pGal; Biosynth & AX Molecules) at different concentrations (0-200 μM before seeding). The concentrations indicated on FIGS. 1, 2, 3 and 4 are the concentrations in α- or β-2F-pGal in the culture medium at day 0, just before the inoculation. The culture medium was fed, on a regular basis, with a chemically defined feed medium, as well as with glucose in order to keep said glucose level in the range of >0 to about 8 g/L (feeds are done at days 3, 5, 7, 10 and 12).
as §2
(§6) Glycosylation profiles were established by capillary gel electrophoresis with laser-induced fluorescence (CGE-LIF; for DWP and for Shake tubes experiments) or by Ultra Performance Liquid Chromatography-2-amino-benzamide labelling technique (2AB-UPLC; for Shake tubes experiments). Groups of glycans were defined as thereafter in Table 3.

[4] = system: galactosylation of mAb1 antibody (cell line 1); test: Glycosylation profile of mAb1, supplementation as feed after the start of the culture (CGE-LIF); assay type: cell-based, Chinese hamster
From the text: as §1, §6

[5] = system: galactosylation of mAb1 antibody (mAb1 cells); test: Glycosylation profile of mAb1 produced in DWP (CGE-LIF); assay type: cell-based, Chinese hamster
Method: as §4, §5, §2, §6
(§7) The cells were cultivated and the results analysed as disclosed in the material and method section. It is noted that the controls (or control conditions) according to the present invention correspond to cells grown without peracetyl galactose.

[6] = system: mAb1 cells (CHO-S cells expressing IgG1 mAb1); test: Fed-batch culture of mAb1 cells in deepwell plates (DWP): viable cell density, viability, titer; assay type: cell-based, Chinese hamster
Method: as §4
(§8) Cells expressing mAb1 were inoculated at 0.3×10^6 cells per millilitre (mL), whereas Cells expressing mAb2 were inoculated at 0.2×10^6 cells per millilitre (mL).
as §5, §2
For DWP experiments, viable cell density and viability were measured with the Guava easyCyte® flow cytometer. Antibody titers were measured with the fortéBIO Octet®.
as §7

[7] = system: mAb1 cells (CHO-S cells expressing IgG1 mAb1); test: Fed-batch culture of mAb1 cells in TubeSpin (shake tubes): viable cell density, viability, titer; assay type: cell-based, Chinese hamster; details: shake tubes
Method: as §4, §8, §5, §2, §3

Rituxan: recombinant IgG whose degalactosylation was studied for CDC (Hodoniczky et al., 2005)
change of CDC after degalactosylation relative to unmodified control Mab [1]: reduced CDC by approximately half

CC(=O)OC[C@H]1O[C@@H](OC(C)=O)[C@H](F)[C@@H](OC(C)=O)[C@H]1OC(C)=O [β-2F-pGal, α/β-D-galactopyranose, 2-deoxy-2-fluoro-,1,3,4,6-tetraacetate]
cell density at harvest ([2]; feed from day 3 (β-2F-pGal-d3)): 9.8 ×106 viable cells/mL | protein titer (yield of the culture) ([2]; feed from day 3 (β-2F-pGal-d3)): 2560 mg/L | viability ([2]; feed from day 3 (β-2F-pGal-d3), second half of culture): below 60% | peak cell density (day 7) ([2]; feed from day 3 (β-2F-pGal-d3: days 3, 5, 7, 10)): 21.2 ×106 viable cells/mL | protein titer (yield of the culture) ([2]; feed from day 5 (β-2F-pGal-d5)): 3215 mg/L | viability on day 14 ([2]; feed from day 5 (β-2F-pGal-d5)): 78% | maximum cell density ([2]; feed from day 5 (β-2F-pGal-d5: days 5, 7, 10)): 18.6 ×106 viable cells/mL | protein titer (yield of the culture) ([2]; feed from day 7 (β-2F-pGal-d7)): 2100 mg/L | viability on day 14 ([2]; feed from day 7 (β-2F-pGal-d7: days 7, 10)): 90% | total level of galactosylation decreased by (Example 2.2) ([3]; 60 μM β anomer, shake tubes, CGE-LIF, unit not given): −5.0 | absolute change of galactosylated N-oligosaccharides compared to the control ([3]; 60 μM, TubeSpin): around 4% | monogalactosylated form changed by (Example 2.2) ([3]; 60 μM, shake tubes, CGE-LIF, listed as β-2F-peracetyl-galactose): −4.7% | effects on the other glycan species ([4]; feed after the start of the culture): remained small | di-galactosylated entity decrease ([4]; feed from day 3): −0.41 | mono-galactosylated species drop ([4]; feed from day 3): −8.0% | overall galactosylation decrease (absolute change vs control) ([4]; feed from day 3 (β-2F-pGal-d3)): −8.5% | di-galactosylated entity decrease ([4]; feed from day 5): −0.33 | mono-galactosylated species drop ([4]; feed from day 5): −6.7% | overall galactosylation decrease (absolute change vs control) ([4]; feed from day 5 (β-2F-pGal-d5)): −7.0% | di-galactosylated entity decrease ([4]; feed from day 7): −0.19 | mono-galactosylated species drop ([4]; feed from day 7): −4.4% | overall galactosylation decrease (absolute change vs control) ([4]; feed from day 7 (β-2F-pGal-d7)): −4.6% | G1F absolute change compared to the control ([5]; 30 μM): 1.1% | G2F absolute change compared to the control ([5]; 30 μM): 0.20% | absolute change in galactosylated N-oligosaccharide compared to the control ([5]; 30 μM): 2.2% | relative decrease of galactosylated N-oligosaccharides compared to control ([5]; 30 μM): 22% | galactosylated N-oligosaccharides of the protein ([5]; 30 μM in medium): 8.3% | G1F absolute change compared to the control ([5]; 60 μM): 2.5% | G2F absolute change compared to the control ([5]; 60 μM): 0.30% | absolute change in galactosylated N-oligosaccharide compared to the control ([5]; 60 μM): 4.2% | relative decrease of galactosylated N-oligosaccharides compared to control ([5]; 60 μM): 40% | galactosylated N-oligosaccharides of the protein ([5]; 60 μM in medium): 6.4% | G1F absolute change compared to the control ([5]; 120 μM): 3.1% | G2F absolute change compared to the control ([5]; 120 μM): 0.33% | absolute change in galactosylated N-oligosaccharide compared to the control ([5]; 120 μM): 5.4% | relative decrease of galactosylated N-oligosaccharides compared to control ([5]; 120 μM): 52% | galactosylated N-oligosaccharides of the protein ([5]; 120 μM in medium): 5.1% | G1F absolute change compared to the control ([5]; 200 μM): 4.4% | G2F absolute change compared to the control ([5]; 200 μM): 0.40% | absolute change in galactosylated N-oligosaccharide compared to the control ([5]; 200 μM): 6.7% | relative decrease of galactosylated N-oligosaccharides compared to control ([5]; 200 μM): 64% | galactosylated N-oligosaccharides of the protein ([5]; 200 μM in medium): 3.9% | inhibition effect on galactosylation ([5]; below 30): neither α- or β-2F-pGal does have a significant inhibition effect on galactosylation | inhibition effect on galactosylation ([5]; concentrations higher than 30 μM): a significant inhibition effect is observed | decrease of titers comparing to control ([6]; concentration higher than 60 μM): about 1.2 factor | impact on protein titre ([6]; concentrations between 30 and 60): no impact on protein titre | impact on cell growth ([6]; concentrations of about 60 μM and higher): negative impact on cell growth | impact on cell growth until the end of culture ([6]; concentrations up to 30 μM in medium): no impact on cell growth | protein titer compared to the control ([6]; media concentration up to 60 μM, day 10 and day 14): stays above the protein titer of the control | impact on cell density, cell viability and protein titer ([6]; media concentrations below 30 μM): do not impact | peak viable cell density at day 7 ([7]; 60 μM): 12.8 ×10^6 viable cells/mL | product titer at the end of the culture (day 14) ([7]; 60 μM, listed as β-2F-p-galactose): 2225 mg/L | effect on cell culture performance ([7]; between 0 and 90 μM α-2F-p-galactose, 60 μM β-2F-p-galactose): No detrimental effect | protein titer compared to the control at culture days 5, 7, 10, 12 and 14 ([7]; α 30-90 μM, β 60 μM, listed as β-2F-p-galactose): comparable to the control
